Literature values, collected in patent publication US11554108B2, “Methods and compositions for treating cutaneous fungal infections” (Xeropedix, Inc., priority 2016, dated 2023).
≈ marks a conversion by molar mass, not a printed value. Read-outs that look alike come from different tables or passages of the source.

Assays:
[1] = molecular target: transient receptor potential vanilloid 1 (TRPV1) cation channel (Homo sapiens, UniProt Q8NER1); conditions: lowered from approximately 42° C.
[2] = not given; remark: listed apart in the source

transient receptor potential vanilloid 1 (TRPV1) cation channel, sequence (Q8NER1 whole entry): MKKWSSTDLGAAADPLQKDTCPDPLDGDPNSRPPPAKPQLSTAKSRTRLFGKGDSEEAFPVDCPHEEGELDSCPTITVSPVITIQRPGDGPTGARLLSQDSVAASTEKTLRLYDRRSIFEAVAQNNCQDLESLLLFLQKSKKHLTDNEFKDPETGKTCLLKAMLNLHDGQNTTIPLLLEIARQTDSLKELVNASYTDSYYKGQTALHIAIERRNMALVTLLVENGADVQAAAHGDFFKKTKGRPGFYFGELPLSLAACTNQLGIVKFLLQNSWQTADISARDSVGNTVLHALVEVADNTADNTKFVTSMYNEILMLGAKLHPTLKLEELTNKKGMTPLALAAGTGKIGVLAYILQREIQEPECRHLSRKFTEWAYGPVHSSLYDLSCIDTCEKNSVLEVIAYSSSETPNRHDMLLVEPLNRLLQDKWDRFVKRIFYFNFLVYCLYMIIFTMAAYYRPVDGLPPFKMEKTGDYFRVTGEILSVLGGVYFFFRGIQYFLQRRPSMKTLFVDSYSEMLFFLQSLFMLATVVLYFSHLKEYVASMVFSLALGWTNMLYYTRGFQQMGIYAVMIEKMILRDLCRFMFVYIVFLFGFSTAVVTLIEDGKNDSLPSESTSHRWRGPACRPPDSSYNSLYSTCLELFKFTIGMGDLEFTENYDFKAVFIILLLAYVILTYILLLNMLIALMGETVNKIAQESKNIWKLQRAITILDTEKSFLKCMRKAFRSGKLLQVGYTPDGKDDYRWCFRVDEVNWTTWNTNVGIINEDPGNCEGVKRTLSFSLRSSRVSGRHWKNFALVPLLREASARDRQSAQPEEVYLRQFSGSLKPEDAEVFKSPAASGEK

[Cl][Al]([Cl])[Cl] [aluminum chloride]
inhibition of T. mentagrophytes in an in vitro MIC test (T. mentagrophytes; 10% aluminum chloride, equal to 100,000 μg/ml): no inhibition | inhibition of T. mentagrophytes in an in vitro MIC test (T. mentagrophytes; 20% aluminum chloride, equal to 200,000 μg/ml): inhibited the fungus | reduction of unpleasant symptoms of tinea pedis (tinea pedis; 30% aluminum chloride solution): effective at reducing unpleasant symptoms | resolution of the infection (tinea pedis; 30% aluminum chloride solution): did not resolve the infection entirely

CCO [Ethanol]
threshold temperature at which TRPV1 signals excessive heat [1]: 34 °C

CN(C/C=C/C#CC(C)(C)C)Cc1cccc2ccccc12 [terbinafine]
stratum corneum concentration (24 hours after a single application of 1% terbinafine cream): 37 ng/cm^2 | concentration of terbinafine in the stratum corneum (24 hours after application of 1% terbinafine cream, converted with 1 ng/cm^2=4 μg/ml): approximately 148 μg/ml | minimum fungicidal concentration against T. rubrum (T. rubrum): 3 ng/mL (≈ 0.0103 µM) | rate of absorption, maximum concentration, and half-life in the skin ([2]; ethanol gel compared to a standard cream formulation): improve | percutaneous terbinafine absorption ([2]; in vivo, ethanol solution compared to isopropyl myristate solution): enhanced

aluminum chlorohydrate
effectiveness against tinea pedis relative to aluminum chloride (tinea pedis; in vivo): less effective than aluminum chloride
